Reference: patent US20160106711A1, “3-3-Di-Substituted-Oxindoles as Inhibitors of Translation Initiation” (President and Fellows of Harvard College, priority 2012, published 2016)

How the values were obtained:
KLN = experiment: Cell growth assay (sulforhodamine B), KLN cells; type: cell-based, mouse; settings: 5 days, SRB
Procedure: […] Plates were then incubated with 0.4% SRB in 1% acetic acid for 1 h, washed with 1% acetic acid to remove the unbound dye, and air-dried. The bound dye was solubilized by addition of 10 mM Tris (pH 10), and the absorbance was determined in a Titertek Multiscan plate reader at 490 nm. The data calculations were carried out as described (the values for mean±SD of data from replicate wells are calculated): data are expressed in terms of % T/C [(OD of treated cells/OD of control cells)×100], as a measure of cell viability and survival in the presence of test materials. Calculations are also made for the concentration of test agents giving a T/C value of 50%, or 50% growth inhibition (IC50). With the SRB assay, a measure is made of the cell population density at time 0 (the time at which drugs are added) from two extra reference plates of inoculated cells fixed with TCA just prior to drug addition to the test plates. Thus, we have three measurements: control optical density (C), test optical density (T), and optical density at time zero (T0). The calculation is 100×[(T−T0)/(C−T0)]. If T is less than T0, cell killing has occurred and can be calculated from 100×[(T−T0)/T0]. Thus, for each drug-cell line combination, a dose-response curve is generated and three levels of effect are calculated.

CRL-2813 = experiment: Cell growth assay (sulforhodamine B), CRL-2813 cells; type: cell-based, human; settings: 5 days, SRB
Procedure: (§1) Adherent mouse (KLN) and human solid tumor cells (CRL-2351, and CRL-2813) were plated in 96-well plates and maintained for 5 days in the presence of 0.54 to 6 μM of individual compound, and cell proliferation was measured by the sulforhodamine B (SRB) assay as described in ref. 11: briefly, cells were fixed in 10% cold trichloroacetic acid at 4° C. for 1 h, extensively washed with double-distilled H2O and air-dried. Plates were then incubated with 0.4% SRB in 1% acetic acid for 1 h, washed with 1% acetic acid to remove the unbound dye, and air-dried. The bound dye was solubilized by addition of 10 mM Tris (pH 10), and the absorbance was determined in a Titertek Multiscan plate reader at 490 nm. The data calculations were carried out as described (the values for mean±SD of data from replicate wells are calculated): data are expressed in terms of % T/C [(OD of treated cells/OD of control cells)×100], as a measure of cell viability and survival in the presence of test materials. Calculations are also made for the concentration of test agents giving a T/C value of 50%, or 50% growth inhibition (IC50). With the SRB assay, a measure is made of the cell population density at time 0 (the time at which drugs are added) from two extra reference plates of inoculated cells fixed with TCA just prior to drug addition to the test plates. Thus, we have three measurements: control optical density (C), test optical density (T), and optical density at time zero (T0). The calculation is 100×[(T−T0)/(C−T0)]. If T is less than T0, cell killing has occurred and can be calculated from 100×[(T−T0)/T0]. Thus, for each drug-cell line combination, a dose-response curve is generated and three levels of effect are calculated.

CRL-2351 = experiment: Cell growth assay (sulforhodamine B), CRL-2351 cells; type: cell-based, human; settings: 5 days, SRB
Procedure: as §1

[1] = test system: eIF2•GTP•Met-tRNAi ternary complex; experiment: Ternary complex assay (ATF-4 assay), dual luciferase firefly/renilla ratio; type: cell-based, mouse; settings: for maximal fold induction at 40 µM: read-out: ATF-4 Xmax @ 40 μM
Description: For assay development, a bi-directional plasmid was designed in which a common promoter/enhancer complex drives the transcription of firefly luciferase (F-luc) ORF fused to the 5′ untranslated region (UTR) of ATF-4, and of the renilla luciferase (R-luc) ORF fused to a 90-nucleotide 5′ UTR derived from the plasmid (FIG. 6A). Because the tetracycline-regulated transactivator ((tTA), required for driving transcription from this vector) is not normally expressed in the mammalian cells, stable KLN cancer cells were constructed that expressed tTA (KLN-tTA).
The KLN-tTA colonies that drove expression of reporter genes from pBISA-DL plasmid were selected by transient transfection and dual luciferase assay. One of these KLN-tTA cell lines was transfected with the pBISA-DL^(ATF-4) expression vector, stable colonies were selected by dual luciferase assay and expanded.
Plasmids and Ternary Complex Assay
(ATF-4 Assay). Briefly, bi-directional mammalian expression vector pBI (Clontech, CA) was modified to expand the multiple cloning sites (MCSs) and designated thereafter as pBISA. This vector contains seven copies of the tetracycline-regulated transactivator response element (TRE), which together act as core promoter/enhancer. The TRE is flanked on both sides by minimal human cytomegalovirus (CMV) minimal promoters allowing bi-directional transcription and two MCSs. Firefly and renilla luciferases were subcloned into MCS-I and MCS-II, respectively. This plasmid, designated pBISA-DL, transcribes two mRNAs that contain the 90 nucleotide plasmid derived 5′UTR (same sequence in both mRNAs), and the ORF encoding either firefly or renilla luciferase followed by a polyadenylation sequence as described in Ziegeler, G.; Ming, J.; Koseki, J. C.; Sevinc, S.; Chen, T.; Ergun, S.; Qin, X.; Aktas, B. H. J. Biol. Chem. 2010, 285, 15408 hereby incorporated by reference. This plasmid was further modified by inserting the 5′UTR of ATF-4 into MCS-I in front of the firefly luciferase mRNA. Transcription from this direction generates an mRNA that contains the firefly luciferase ORF preceded by a 5′UTR composed of 90 nucleotides derived from the plasmid and 267 nucleotides derived from the 5′UTR of ATF-4 mRNA. Transcription from the other direction generates an mRNA that contains the renilla luciferase ORF proceeded only by the 90-nucleotide plasmid-derived sequence in the 5′UTR. This expression plasmid is called pBISA-DL(ATF-4). In the dual luciferase assay, cells expressing firefly and renilla luciferases were lysed and the extracts assayed with a Dual-Glo Luciferase assay kit, per manufacturer's instruction (Promega Inc., Madison, Wis.). The data calculations were carried out as the ratio of firefly to renilla luciferase signal as described in Chen, T.; Ozel, D.; Qiao, Y.; Harbinski, F.; Chen, L.; Denoyelle, S.; He, X.; Zvereva, N.; Supko, J. G.; Chorev, M.; Halperin, J. A.; Aktas, B. H. Nat. Chem. Biol. 2011, 7, 610 hereby incorporated by reference.

[2] = Mus musculus, read-out: ATF-4 Xmax
[3] = Mus musculus, 80 uM, read-out: ATF-4 Xmax

Row | SMILES | IC50 (KLN; Mus musculus, 120 h) | IC50 (CRL-2813; Homo sapiens, CRL2813, 120 h) | IC50 (CRL-2351; Homo sapiens, 120 h) | maximal fold induction at 40 µM ([1]; Mus musculus) | other results
1 | CC(C)(C)c1cccc(C2(c3cc(C(C)(C)C)ccc3O)C(=O)N(CCBr)c3ccccc32)c1 (stereo not shown) [HY283] | > 20 µM | 1.4 ± 0.4 µM | 1.5 ± 0.7 µM | 9.6 ± 0.16 | 
2 | CC(C)(C)c1ccc(O)c(C2(c3cc(C(C)(C)C)ccc3O)C(=O)Nc3c2ccc(F)c3F)c1 [HY036, 3,3-Bis(5-tert-Butyl-2-Hydroxyphenyl)-6,7-Difluoroindolin-2-One] | 11.2 ± 3.2 µM | 2.7 ± 0.1 µM | 2.4 ± 0.6 µM | 4.45 ± 1.07 | 
3 | COc1ccc(C2(c3cc(C(C)(C)C)ccc3OCCN3CCOCC3)C(=O)Nc3ccc(I)cc32)cc1 (stereo not shown) [Sd204, 3-{5-tert-butyl-2-[2-(morpholin-4-yl)ethoxy]phenyl}-5-iodo-3-(4-methoxyphenyl)indol-2-one] | 12 ± 1.2 µM | 2.6 ± 0.4 µM | 6.1 ± 1.7 µM | 4.5 ± 0.93 | 
4 | CC(C)(C)c1ccc(OCCO)c(C2(c3cc(C(C)(C)C)ccc3OCCO)C(=O)Nc3ccccc32)c1 [HY169] | 11 ± 2.4 µM | 2.9 ± 0.1 µM | 2.7 ± 0.3 µM |  | maximal fold induction at 20 µM [1, 2]: 3.4 ± 0.1
5 | CN(C)c1ccc(C2(c3cc(C(C)(C)C)ccc3OCCN3CCOCC3)C(=O)Nc3ccccc32)cc1 (stereo not shown) [Sd154, 3-{5-tert-butyl-2-[2-(morpholin-4-yl)ethoxy]phenyl}-3-[4-(dimethylamino)phenyl]-indol-2-one] | 2.2 ± 0.6 µM | 7.5 ± 1 µM | 4.7 ± 0.3 µM | 7.15 ± 0.49 | 
6 | O=C1Nc2c(ccc(F)c2F)C1(c1ccc(O)cc1)c1ccc(O)cc1 [SD132] | > 20 µM | 3.74 ± 0.28 µM | > 20 µM |  | maximal fold induction at 80 µM [1, 3]: 8.8 ± 1.97
7 | CCOC(=O)COc1ccccc1C1(c2cc(C(C)(C)C)ccc2OCC(=O)OCC)C(=O)Nc2ccccc21 (stereo not shown) [HY067] |  |  |  |  | IC50 (KLN): 19.8 ± 1.3 µM; IC50 (CRL-2813): 0.24 µM; IC50 (CRL-2351): 2.1 ± 1.1 µM; ATF-4 Xmax ([1]; 80 uM): 1.19 ± 0.19/80 uM
8 | CC(C)(C)c1ccc(O)c(C2(c3cc(C(C)(C)C)ccc3OCCBr)C(=O)Nc3ccccc32)c1 (stereo not shown) [HY083] | 11.4 ± 2.2 µM | 1 ± 0.9 µM | 2.4 ± 1.6 µM | 12.9 ± 2.11 | 
9 | COc1ccc(OC)c(C2(c3cc(O)ccc3OC)C(=O)Nc3ccccc32)c1 (stereo not shown) [HY055] | 15.6 ± 0.4 µM | 9.7 ± 2 µM | 9 µM |  | maximal fold induction at 80 µM [1, 3]: 1.2 ± 0.6
10 | COc1ccc(C(C)C)cc1C1(c2cc(C(C)C)ccc2O)C(=O)Nc2ccccc21 (stereo not shown) [HY161] | > 20 µM | 1.4 ± 0.09 µM | 7.2 ± 3 µM | 3.91 ± 0.65 | 
11 | CN(C)CCOc1ccc(C(C)(C)C)cc1C1(c2cc(C(C)(C)C)ccc2OCCN(C)C)C(=O)N(CCN(C)C)c2ccccc21 [HY092] | 0.2 ± 0.03 µM | 0.9 ± 0.01 µM | 0.34 ± 0.18 µM |  | maximal fold induction at 2.5 µM ([1]; Mus musculus, 2.5 uM, read-out: ATF-4 Xmax): 16.8 ± 2.18
12 | CC(C)(C)c1ccc(O)c(C2(c3cc(C(C)(C)C)ccc3O)C(=O)Nc3ccccc32)c1 [HY021, 3,3-Bis(5-tert-Butyl-2-Hydroxyphenyl)Indolin-2-One] | 12 ± 0.7 µM | 10.2 ± 1.2 µM | 2.8 ± 0.4 µM | 4.4 | maximal fold induction at 10 µM [1, 2]: 5.2 ± 2.2; maximal fold induction at 20 µM [1, 2]: 10.6
13 | CCCCc1ccc(O)c(C2(c3ccccc3)C(=O)Nc3ccccc32)c1 (stereo not shown) [Compound 1287, reference compound] | > 20 µM | 2.8 ± 0.3 µM | 3.5 ± 0.1 µM |  | 
14 | CN1CCN(CCOc2ccc(C(C)(C)C)cc2C2(c3cc(C(C)(C)C)ccc3OCCN3CCN(C)CC3)C(=O)Nc3ccccc32)CC1 [HY413] | 0.85 ± 0.02 µM | 0.74 ± 0.01 µM | 0.2 ± 0.08 µM |  | maximal fold induction at 10 µM [1, 2]: 9.7 ± 3.8
15 | CC(C)(C)c1ccc(O)c(C2(c3cc(C(C)(C)C)ccc3OCCN3CCCC3)C(=O)N(CCN3CCCC3)c3ccccc32)c1 (stereo not shown) [HY093] | 4.1 ± 0.8 µM | 7.25 ± 1.6 µM | 3.6 ± 0.7 µM | 9 ± 1.7 | maximal fold induction at 20 µM [1, 2]: 2.21 ± 0.75
16 | CC(C)(C)c1ccc(O)c(C2(c3cc(C(C)(C)C)ccc3OCCN3CCOCC3)C(=O)Nc3ccccc32)c1 (stereo not shown) [HY063] | 7.4 ± 2.5 µM | 3.2 ± 0.2 µM | 1.6 ± 0.2 µM | 4.4 ± 1.5 | 
17 | COC(=O)c1cccc2c1NC(=O)C2(c1ccc(OC)cc1)c1cc(C(C)(C)C)ccc1O (stereo not shown) [Sd202] | > 20 µM | 12.2 ± 0.5 µM | 3.4 ± 0.6 µM | 4.12 ± 0.42 | 
18 | CC(C)(C)c1ccc(OCCN2CCOCC2)c(C2(c3cc(C(C)(C)C)ccc3OCCN3CCOCC3)C(=O)Nc3ccccc32)c1 [SD167] | > 20 µM | 2.4 ± 0.1 µM | 1.68 ± 1.26 µM |  | 
19 | CC(C)(C)c1ccc(OCCOC2OC(CO)C(O)C(O)C2O)c(C2(c3cc(C(C)(C)C)ccc3OCCOC3OC(CO)C(O)C(O)C3O)C(=O)Nc3ccccc32)c1 (stereo not shown) [HY190] | > 20 µM | > 20 µM | > 20 µM |  | 
